Earlier results, collected in patent publication US11813301B2, “Topical composition with active compounds from Cannabis sativa and Calendula officinalis for reduction of skin lesions” (UAB Satimed, priority 2016, dated 2023).

System: keratinocyte proliferation
Details: cannabinoid receptor-independent manner

SMILES | inhibition of keratinocyte proliferation
CCCCCc1cc(O)c2c(c1)OC(C)(C)[C@@H]1CCC(C)=C[C@@H]21 [Preparation D9-THC, Δ9-tetrahydrocannabinol] | low micromolar range
C=C(C)[C@@H]1CCC(C)=C[C@H]1c1c(O)cc(CCCCC)cc1O [CBD, Cannabidiol] | low micromolar range
CCCCCc1cc(O)c2c(c1)OC(C)(C)c1ccc(C)cc1-2 [CBN, Cannabinol] | low micromolar range
